Measurements as given in US5981520A, “Piperazino derivatives as neurokinin antagonists” (Schering Corporation, priority 1998, dated 1999).

Experiments:
[1] = target: T1, human neurokinin 1 (NK1) receptor (Homo sapiens, UniProt P25103); assay: Neurokinin receptor binding assay, NK1 ([3H]-Substance P, CHO membranes); conditions: for Ki: racemic compounds except specifically defined enantiomers
T1 construct: expressed in transfected cells; host or cells: Chinese Hamster ovary (CHO) cells
Method: (§1) Chinese Hamster ovary (CHO) cells transfected with the coding regions for the human neurokinin 1 (NK1) of the human neurokinin 2 (NK2) receptors are grown in Dulbecco's minimal essential medium supplemented with 10% fetal calf serum, 0.1 mM non-essential amino acids, 2 mM glutamine, 100 units/ml of penicillin and streptomycin, and 0.8 mg of G418/ml at 37° C. in a humidified atmosphere containing 5% CO2.
(§2) Cells are harvested by centrifugation and washed in RPMI media at […] for 5 minutes. The pellet is resuspended inTris-HCl (pH7.4) containing 1 uM phosphoramidon and 4 ug/ml of chymostatin at a cell density of 30×10^6 cells/ml. The suspension is then homogenized in a Brinkman Polytron (setting 5) for 30-45 seconds. The homogenate is centrifuged at 800×g for 5 min at 4° C. to collect unbroken cells and nuclei. The supematant is centrifuged in a Sorvall RC5C at 19,000 rpm ([…]) for 30 min at 4° C. The pellet is resuspended, an aliquot is removed for a protein determination (BCA) and washed again. The resulting pellet is stored at -80° C.
(§3) Binding is initiated by the addition of 100 μl of membrane (10-20 μg) containing the human NK-1 or NK-2 receptor in a final volume of 200 μl. After 40 minutes at room temperature, the reaction is stopped by rapid filtration onto Whatman GF/C filters which have been presoaked in 0.3% polyethylenimine. Filters are washed 2 times with 3 ml of 50 mM Tris-HCl (pH7.4).

[2] = target: T2, human neurokinin 2 (NK2) receptor (Homo sapiens, UniProt P21452); assay: Neurokinin receptor binding assay, NK2 ([3H]-Neurokinin A, CHO membranes); conditions: for Ki: racemic compounds except specifically defined enantiomers
T2 construct: expressed in transfected cells; host or cells: Chinese Hamster ovary (CHO) cells
T2 sequence (P21452 1-398): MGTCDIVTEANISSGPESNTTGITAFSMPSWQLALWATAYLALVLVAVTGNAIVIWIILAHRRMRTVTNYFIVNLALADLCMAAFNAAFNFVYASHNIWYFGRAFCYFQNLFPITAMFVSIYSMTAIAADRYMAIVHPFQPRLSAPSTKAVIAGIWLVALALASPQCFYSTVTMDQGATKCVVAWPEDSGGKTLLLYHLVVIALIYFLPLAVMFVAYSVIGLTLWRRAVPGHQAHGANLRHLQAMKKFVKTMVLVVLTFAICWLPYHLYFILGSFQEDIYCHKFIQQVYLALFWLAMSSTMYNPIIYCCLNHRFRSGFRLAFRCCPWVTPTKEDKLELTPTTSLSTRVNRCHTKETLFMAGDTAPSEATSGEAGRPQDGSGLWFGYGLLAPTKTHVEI
Method: as §1, §2, §3

NK3 = target: T3, NK3 (Homo sapiens, UniProt P29371); assay: NK3 radioligand receptor binding assay as described in the literature; conditions: racemic compounds except specifically defined enantiomers
T3 sequence (P29371 1-465): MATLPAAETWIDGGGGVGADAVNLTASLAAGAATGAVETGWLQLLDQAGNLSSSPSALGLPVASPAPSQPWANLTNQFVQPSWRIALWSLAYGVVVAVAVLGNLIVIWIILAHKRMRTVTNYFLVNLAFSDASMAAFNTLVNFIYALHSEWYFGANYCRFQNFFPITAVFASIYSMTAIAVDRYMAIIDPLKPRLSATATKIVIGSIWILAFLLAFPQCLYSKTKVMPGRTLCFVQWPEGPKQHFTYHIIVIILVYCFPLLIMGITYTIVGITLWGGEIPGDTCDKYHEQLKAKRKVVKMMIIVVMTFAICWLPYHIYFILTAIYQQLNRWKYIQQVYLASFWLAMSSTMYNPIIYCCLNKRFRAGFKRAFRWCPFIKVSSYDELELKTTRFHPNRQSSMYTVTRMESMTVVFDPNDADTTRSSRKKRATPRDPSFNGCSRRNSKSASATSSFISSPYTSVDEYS

T1 sequence (P25103 whole entry): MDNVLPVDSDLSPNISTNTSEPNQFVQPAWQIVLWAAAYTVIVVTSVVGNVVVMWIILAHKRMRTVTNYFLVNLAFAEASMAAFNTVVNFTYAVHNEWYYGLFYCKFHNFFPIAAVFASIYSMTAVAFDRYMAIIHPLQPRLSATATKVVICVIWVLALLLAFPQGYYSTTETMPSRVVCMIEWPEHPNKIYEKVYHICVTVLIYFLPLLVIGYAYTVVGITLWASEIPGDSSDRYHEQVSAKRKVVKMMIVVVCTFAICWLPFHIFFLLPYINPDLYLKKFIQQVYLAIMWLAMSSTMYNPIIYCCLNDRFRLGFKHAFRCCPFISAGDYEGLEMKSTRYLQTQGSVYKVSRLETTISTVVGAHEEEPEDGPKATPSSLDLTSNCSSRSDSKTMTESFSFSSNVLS

SMILES	Ki [1] [µM]	Ki [2] [µM]	Ki (NK3) [µM]	inhibition at 1 µM [2] [%]	inhibition at 1 µM [1] [%]
COc1ccc(C2CN(C(=O)c3cc(C(F)(F)F)cc(C(F)(F)F)c3)CCN2C(=O)CNC2CCN(Cc3ccccc3)CC2)cc1 (stereo not drawn)	0.0025	0.048	–	–	–
O=C(C1c2ccccc2Oc2ccccc21)N1CCN(C(=O)CNC2CCN(Cc3ccccc3)CC2)C(c2ccc(Cl)c(Cl)c2)C1 (stereo not drawn)	0.117	0.187	–	–	–
O=C(c1cc(C(F)(F)F)cc(C(F)(F)F)c1)N1CCN(C(=O)CNC2CCN(Cc3ccccc3)CC2)C(c2ccc(Cl)c(Cl)c2)C1 (stereo not drawn)	–	–	0.433	–	–
CC(C)(C)c1cc(C(=O)N2CCN(C(=O)CNC3CCN(Cc4ccccc4)CC3)C(c3ccc(Cl)c(Cl)c3)C2)cc(C(C)(C)C)c1 (stereo not drawn)	0.063	0.068	–	–	–
Cc1cc(C)cc(C(=O)N2CCN(C(=O)C[N+](C)(C)C3CCN(Cc4ccccc4)CC3)C(c3ccc(Cl)c(Cl)c3)C2)c1 (stereo not drawn)	0.00058	0.093	–	–	–
CN(CC(=O)N1CCN(Cc2cc(C(F)(F)F)cc(C(F)(F)F)c2)CC1c1ccc(Cl)c(Cl)c1)C1CCN(Cc2ccccc2)CC1 (stereo not drawn)	0.074	–	–	7	–
O=C(c1cc(O)cc(O)c1)N1CCN(C(=O)CNC2CCN(Cc3ccccc3)CC2)C(c2ccc(Cl)c(Cl)c2)C1 (stereo not drawn)	–	–	–	22	14
O=C(c1ccccc1)N1CCN(C(=O)CNC2CCN(Cc3ccccc3)CC2)C(c2ccc(Cl)c(Cl)c2)C1 (stereo not drawn)	0.093	0.0034	–	–	–
